Test results as given in patent US20050239656A1, “Pyridine compounds or salts thereof and herbicides containing the same” (priority 2002, published 2005).

What was measured:
redroot pigweed [1] = assay: Test Example 1: foliage treatment, upland pot test; type: in vivo, Amaranthus retroflexus L.; conditions: active ingredient 500 g/ha, observed 18th to 23rd day, 0 = non-treated, 100 = complete kill
corn [2] = assay: Test Example 2: soil surface treatment, upland pot test; type: in vivo, Zea mays L.; conditions: observed 20th to 28th day
Method in brief: (§1)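 Visual growth-control ratings, from 0 (like the non-treated plot) to 100 (total kill), were made between days 20 and 28 after a soil-surface spray. The compound, formulated as wettable powder or emulsifiable concentrate and diluted at 1,500 L/ha, went on one day post-sowing in upland-soil pots of 1/170,000 ha.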

green foxtail [3] = assay: Test Example 1: foliage treatment, upland pot test; type: in vivo, Setaria viridis L.; conditions: active ingredient 500 g/ha, observed 18th to 23rd day, 0 = non-treated, 100 = complete kill
velvetleaf [4] = assay: Test Example 2: soil surface treatment, upland pot test; type: in vivo, Abutilon theophrasti MEDIC.; conditions: observed 20th to 28th day
Method in brief: as §1

crabgrass [5] = assay: as above; type: in vivo, Digitaria sanguinalis L.; conditions: observed 20th to 28th day
Method in brief: as §1

green foxtail [6] = assay: as above; type: in vivo, Setaria viridis L.; conditions: observed 20th to 28th day
Method in brief: as §1

barnyardgrass [7] = assay: Test Example 1: foliage treatment, upland pot test; type: in vivo, Echinochloa crus-galli L.; conditions: active ingredient 500 g/ha, observed 18th to 23rd day, 0 = non-treated, 100 = complete kill
Method in brief: (§2)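 Visual growth-control scores (0 = untreated, 100 = complete kill) were taken 18–23 days after foliar spraying of a wettable powder or emulsifiable concentrate, diluted in 500 L/ha water with 0.1% (v/v) spreader. Treatment leaf stages: barnyardgrass 1.3–2.8, rice 1.2–2.6, wheat 1.3–2.4, soybean 0.1–0.4.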

soybean [8] = assay: Test Example 1: foliage treatment, upland pot test; type: in vivo, Glycine max Merr.; conditions: crop, active ingredient 500 g/ha, observed 18th to 23rd day, 0 = non-treated, 100 = complete kill
Method in brief: as §2

prickly sida [9] = assay: Test Example 1: foliage treatment, upland pot test; type: in vivo, Sida spinosa L.; conditions: active ingredient 500 g/ha, observed 18th to 23rd day, 0 = non-treated, 100 = complete kill
corn [10] = assay: Test Example 1: foliage treatment, upland pot test; type: in vivo, Zea mays L.; conditions: crop, active ingredient 500 g/ha, observed 18th to 23rd day, 0 = non-treated, 100 = complete kill
Method in brief: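 Corn seeds were sown in upland field soil held in a 1/170,000 ha pot and grown to the 2.1 to 3.2 leaf stage. A wettable powder or emulsifiable concentrate of the test compound was diluted with water at 500 L/ha, given 0.1% (v/v) agricultural spreader, and sprayed onto the foliage with a small sprayer. Growth controlling degree (%) was scored visually 18th to 23rd days later, from 0 (non-treated) to 100 (complete kill).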

barnyardgrass [11] = assay: Test Example 3: paddy pot test, application under submerged conditions; type: in vivo, Echinochloa crus-galli L.; conditions: submerged application at 0.5 leaf stage, visually observed 14 days after application, 0 = non-treated, 100 = complete kill
Method in brief: (§3)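 Paddy soil pots; seeds sown, lightly covered; flooded 0.5–1 cm in greenhouse; wapato tubers planted day 1–2; flood raised to 3–4 cm. Submerged pipette application at 0.5 leaf / primary leaf stage. Visual score day 14, 0–100%.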

wheat [12] = assay: Test Example 2: soil surface treatment, upland pot test; type: in vivo, Triticum spp.; conditions: observed 20th to 28th day
Method in brief: as §1

redroot pigweed [13] = assay: as above; type: in vivo, Amaranthus retroflexus L.; conditions: observed 20th to 28th day
Method in brief: as §1

rice (var. Nihonbare) = assay: Test Example 3: paddy pot test, transplanted rice; type: in vivo, Oryza sativa L.; conditions: applied 4th day after transplantation, visually observed 21st day after application, 0 = non-treated, 100 = complete kill
Method in brief: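 Visual crop-injury rating (0 = as untreated, 100 = complete kill, %) taken 21 days post-application. Treatment: formulated compound, water-diluted, pipetted into 3–4 cm flood water at a preset active-ingredient dose, 4 days after transplanting 2-leaf Nihonbare rice 3 cm deep in puddled paddy soil.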

barnyardgrass [14] = assay: Test Example 2: soil surface treatment, upland pot test; type: in vivo, Echinochloa crus-galli L.; conditions: observed 20th to 28th day
Method in brief: as §1

japanese bulrush = assay: Test Example 3: paddy pot test, application under submerged conditions; type: in vivo, Scirpus juncoides; conditions: submerged application at 0.5 leaf stage, visually observed 14 days after application, 0 = non-treated, 100 = complete kill
Method in brief: as §3

soybean [15] = assay: Test Example 2: soil surface treatment, upland pot test; type: in vivo, Glycine max Merr.; conditions: observed 20th to 28th day
Method in brief: as §1

rice [16] = assay: Test Example 1: foliage treatment, upland pot test; type: in vivo, Oryza sativa L.; conditions: crop, active ingredient 500 g/ha, observed 18th to 23rd day, 0 = non-treated, 100 = complete kill
Method in brief: as §2

rice [17] = assay: Test Example 2: soil surface treatment, upland pot test; type: in vivo, Oryza sativa L.; conditions: observed 20th to 28th day
Method in brief: as §1

wheat [18] = assay: Test Example 1: foliage treatment, upland pot test; type: in vivo, Triticum spp.; conditions: crop, active ingredient 500 g/ha, observed 18th to 23rd day, 0 = non-treated, 100 = complete kill
Method in brief: as §2

prickly sida [19] = assay: Test Example 2: soil surface treatment, upland pot test; type: in vivo, Sida spinosa L.; conditions: observed 20th to 28th day
Method in brief: as §1

velvetleaf [20] = assay: Test Example 1: foliage treatment, upland pot test; type: in vivo, Abutilon theophrasti MEDIC.; conditions: active ingredient 500 g/ha, observed 18th to 23rd day, 0 = non-treated, 100 = complete kill
crabgrass [21] = assay: Test Example 1: foliage treatment, upland pot test; type: in vivo, Digitaria sanguinalis L.; conditions: active ingredient 500 g/ha, observed 18th to 23rd day, 0 = non-treated, 100 = complete kill
japanese ribbon wapato = assay: Test Example 3: paddy pot test, application under submerged conditions; type: in vivo, Sagittaria pygniaea; conditions: active ingredient 250 g/ha; submerged application at primary leaf stage; visually observed 14 days after application; 0 = non-treated, 100 = complete kill
Method in brief: as §3

Row | SMILES | Growth controlling degree (%) Redroot pigweed (redroot pigweed [1]) [%] | Growth controlling degree (%) Corn (corn [2]; active ingredient 500 g/ha) [%] | Growth controlling degree (%) Green foxtail (green foxtail [3]) [%] | Growth controlling degree (%) Velvetleaf (velvetleaf [4]; active ingredient 500 g/ha) [%] | Growth controlling degree (%) Crabgrass (crabgrass [5]; active ingredient 500 g/ha) [%] | Growth controlling degree (%) Green foxtail (green foxtail [6]; active ingredient 500 g/ha) [%] | Growth controlling degree (%) Barnyardgrass (barnyardgrass [7]) [%] | Growth controlling degree (%) Soybean (soybean [8]) [%] | Growth controlling degree (%) Prickly sida (prickly sida [9]) [%] | Growth controlling degree (%) Corn (corn [10]) [%] | Growth controlling degree (%) Barnyardgrass (barnyardgrass [11]; active ingredient 250 g/ha) [%] | Growth controlling degree (%) wheat (wheat [12]; active ingredient 500 g/ha) [%] | Growth controlling degree (%) Redroot pigweed (redroot pigweed [13]; active ingredient 500 g/ha) [%] | Growth controlling degree (%) Rice (rice (var. Nihonbare); active ingredient 250 g/ha) [%] | Growth controlling degree (%) Barnyardgrass (barnyardgrass [14]; active ingredient 500 g/ha) [%] | Growth controlling degree (%) Japanese bulrush (japanese bulrush; active ingredient 250 g/ha) [%] | Growth controlling degree (%) Rice (rice [16]) [%] | Growth controlling degree (%) wheat (wheat [18]) [%] | Growth controlling degree (%) Velvetleaf (velvetleaf [20]) [%] | Growth controlling degree (%) Crabgrass (crabgrass [21]) [%] | also measured
1 | CC(C)C(c1cnccc1C(F)(F)F)N(C)C(=O)Cc1ccc(OC(F)F)cc1 (racemic) [I-128] | 60 | 50 | 50 | 60 | 100 | 100 | 70 | 80 | 80 | 70 | 100 | 30 | 30 | 0 | 100 | 90 | 50 | 30 | 80 | 95 | Growth controlling degree (%) Soyabean (soybean [15]; active ingredient 500 g/ha): 20%; Growth controlling degree (%) Rice (rice [17]; active ingredient 500 g/ha): 40%; Growth controlling degree (%) Prickly sida (prickly sida [19]; active ingredient 500 g/ha): 80%
2 | Cc1ccc(S(=O)(=O)N(C)C(c2cnccc2C(F)(F)F)C(C)C)cc1 (racemic) [I-130] | 70 |  | 60 |  |  |  | 70 | 40 | 80 | 70 |  |  |  |  |  |  | 40 | 10 | 70 | 80 | Growth controlling degree (%) Corn (corn [2]; active ingredient 250 g/ha): 20%; Growth controlling degree (%) Velvetleaf (velvetleaf [4]; active ingredient 250 g/ha): 10%; Growth controlling degree (%) Crabgrass (crabgrass [5]; active ingredient 250 g/ha): 98%; Growth controlling degree (%) Green foxtail (green foxtail [6]; active ingredient 250 g/ha): 95%; Growth controlling degree (%) Barnyardgrass (barnyardgrass [11]; active ingredient 125 g/ha): 100%; Growth controlling degree (%) wheat (wheat [12]; active ingredient 250 g/ha): 20%; Growth controlling degree (%) Redroot pigweed (redroot pigweed [13]; active ingredient 250 g/ha): 10%; Growth controlling degree (%) Rice (rice (var. Nihonbare); active ingredient 125 g/ha): 10%; Growth controlling degree (%) Barnyardgrass (barnyardgrass [14]; active ingredient 250 g/ha): 100%; Growth controlling degree (%) Japanese bulrush (japanese bulrush; active ingredient 125 g/ha): 70%; Growth controlling degree (%) Soyabean (soybean [15]; active ingredient 250 g/ha): 10%; Growth controlling degree (%) Rice (rice [17]; active ingredient 250 g/ha): 40%; Growth controlling degree (%) Prickly sida (prickly sida [19]; active ingredient 250 g/ha): 50%
3 | CC(C)C(c1cnccc1C(F)(F)F)N(C)C(=O)CC1Cc2ccccc2C1 (stereo not shown) [I-191] | 70 | 40 | 80 | 10 | 98 | 100 | 70 | 50 | 80 | 60 |  | 20 | 50 |  | 100 |  | 20 | 10 | 80 | 70 | Growth controlling degree (%) Barnyardgrass (barnyardgrass [11]; active ingredient 500 g/ha): 100%; Growth controlling degree (%) Rice (rice (var. Nihonbare); active ingredient 500 g/ha): 20%; Growth controlling degree (%) Japanese bulrush (japanese bulrush; active ingredient 500 g/ha): 90%; Growth controlling degree (%) Soyabean (soybean [15]; active ingredient 500 g/ha): 30%; Growth controlling degree (%) Rice (rice [17]; active ingredient 500 g/ha): 20%; Growth controlling degree (%) Prickly sida (prickly sida [19]; active ingredient 500 g/ha): 10%
4 | CC(C)CC(=O)N(C)C(c1cnccc1C(F)(F)F)C(C)C (stereo not shown) [I-193] | 80 |  | 80 |  |  |  | 95 | 80 | 90 | 80 | 100 |  |  | 30 |  | 95 | 80 | 80 | 60 | 90 | Growth controlling degree (%) Corn (corn [2]; active ingredient 250 g/ha): 70%; Growth controlling degree (%) Velvetleaf (velvetleaf [4]; active ingredient 250 g/ha): 10%; Growth controlling degree (%) Crabgrass (crabgrass [5]; active ingredient 250 g/ha): 100%; Growth controlling degree (%) Green foxtail (green foxtail [6]; active ingredient 250 g/ha): 100%; Growth controlling degree (%) wheat (wheat [12]; active ingredient 250 g/ha): 60%; Growth controlling degree (%) Redroot pigweed (redroot pigweed [13]; active ingredient 250 g/ha): 10%; Growth controlling degree (%) Barnyardgrass (barnyardgrass [14]; active ingredient 250 g/ha): 100%; Growth controlling degree (%) Soyabean (soybean [15]; active ingredient 250 g/ha): 10%; Growth controlling degree (%) Rice (rice [17]; active ingredient 250 g/ha): 80%; Growth controlling degree (%) Prickly sida (prickly sida [19]; active ingredient 250 g/ha): 80%
5 | CC(C)C(c1cnccc1C(F)(F)F)N(C)C(=O)CC(C)(C)C (stereo not shown) [I-194] | 50 |  | 70 |  |  |  | 70 | 40 | 70 | 20 | 98 |  |  | 30 |  | 98 | 50 | 40 | 10 | 80 | Growth controlling degree (%) Corn (corn [2]; active ingredient 250 g/ha): 10%; Growth controlling degree (%) Velvetleaf (velvetleaf [4]; active ingredient 250 g/ha): 30%; Growth controlling degree (%) Crabgrass (crabgrass [5]; active ingredient 250 g/ha): 100%; Growth controlling degree (%) Green foxtail (green foxtail [6]; active ingredient 250 g/ha): 100%; Growth controlling degree (%) Japanese ribbon wapato (japanese ribbon wapato): 30%; Growth controlling degree (%) wheat (wheat [12]; active ingredient 250 g/ha): 20%; Growth controlling degree (%) Redroot pigweed (redroot pigweed [13]; active ingredient 250 g/ha): 50%; Growth controlling degree (%) Barnyardgrass (barnyardgrass [14]; active ingredient 250 g/ha): 100%; Growth controlling degree (%) Soyabean (soybean [15]; active ingredient 250 g/ha): 10%; Growth controlling degree (%) Rice (rice [17]; active ingredient 250 g/ha): 40%; Growth controlling degree (%) Prickly sida (prickly sida [19]; active ingredient 250 g/ha): 40%
6 | CC(C)C(=O)N(C)C(c1cnccc1C(F)(F)F)C(C)C (stereo not shown) [I-198] | 70 | 70 | 60 | 70 | 100 | 100 | 70 | 60 | 70 | 70 | 100 | 98 | 80 | 60 | 100 | 100 | 80 | 70 | 40 | 80 | Growth controlling degree (%) Soyabean (soybean [15]; active ingredient 500 g/ha): 90%; Growth controlling degree (%) Rice (rice [17]; active ingredient 500 g/ha): 98%; Growth controlling degree (%) Prickly sida (prickly sida [19]; active ingredient 500 g/ha): 90%
